Measurements: patent US20230072523A1, “PROCESS AND SYSTEM FOR ACELLULAR THERAPY” (Orgenesis Inc., priority 2020, published 2023)

Assay: acetaminophen cytotoxicity, cell viability by XTT assay
Format: cell-based
Details: 48 hrs incubation, control 100%; for viability at 48 h, 5 mM: acetaminophen 5 mM
From the text: In the current example, cytotoxicity-induced paracrine EVs were replaced by current existing extracorporeal regimen, in addition to replace depleted body fluids with protective EVs fused during hemodialysis. EV mimetics—Bioxomes or chelator-containing EV mimetics, named Redoxomes as described by us recently in PCT publication no. PCT/IL2019/050391 (incorporated herein by reference) were used. Selected chelator, DSFX—deferoxamine embedded in Redoxomes can be fused with EVs or body fluids, or cells to protect from cytotoxicity damage, prevent liver and kidney failure and mortality, morbidity rate. To establish growth conditions sensitive to proliferation inhibition cytoparameters, calibration of dynamic cell growth parameters was performed by calibration of cell number in CellTiter-Glo Assay (Promega) shown on tables 3 and 4 below in relative units.
Specific protective anti-cytotoxicity example tested on calibrated above assays of EV mimetic proprietary Bioxome, is shown in table below. Cell viability, %, measured by XTT assay (Biological Industries Beit Haemek). Cell viability without treatment was calibrated by dose dependence to serum conditions and cell density. Cell seeding established for 10000, 20000 cells/well in 96 well plates. For RCB001 cells (liver derived mesenchymal like cells)—10,000 cells. For −HepG2 cells—20,000 cells density used. Cells were grown in DMEM plus 10% exosome depleted FBS (ThermoFisher Scientific).

`CC(=O)Nc1ccc(O)cc1` [Acetaminophen] gave a viability at 48 h, 5 mM (RCB001 cells (liver derived mesenchymal like cells)) of 57 to 81%, a viability at 48 h, 10 mN (RCB001 cells (liver derived mesenchymal like cells), acetaminophen) of 46% and a viability at 48 h, 5 mM (human, HepG2 cells) of 62%. The viability at 48 h, 10 mM (human, HepG2 cells, acetaminophen 10 mM) was 46%.
